Here are results for 28 compounds from patent US10669284B2, “Fused thiazolopyrimidine derivatives as MNKS inhibitors” (LIFEARC, priority 2015, dated 2020).

One may read the IC50 as the concentration that inhibits the measured activity by half.

Test [1] deals with phosphorylation of eIF4E at ser209 in MV4.11 cell line. Nature of the test: MNK cellular activity phospho-eIF4E detection assay (Alphascreen Surefire). The note with it: Homo sapiens; MV4.11 cell line, phospho-eIF4E (ser209) Alphascreen Surefire; read-out: P(IC50) elF4E (converted). In kind it is cell-based. A digest of the protocol: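 AlphaScreen SureFire sandwich-immunoassay readout of phospho-eIF4E Ser209 in lysed MV4.11 cells; acceptor then donor beads, each 1.5 hr at room temperature. Signal normalised to untreated DMSO-only controls; duplicate curves, values averaged over at least 2 independent experiments.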

The next test addresses T1, Full-length human MNK1 (Homo sapiens, UniProt Q9BUB5, T385D).
T1 construct: GST (N); purchased Carna Biosciences 02-145; host or cells: baculovirus expression system
Nature of the test: MNK1 biochemical IC50 assay (Caliper Mobility Shift Assay). As to conditions: read-out: P(IC50) MNK1 (converted).

In another test the target is T2, Full-length human MNK2 (Homo sapiens, UniProt Q9HBH9, T379D).
T2 construct: GST (N); purchased Carna Biosciences 02-146; host or cells: baculovirus expression system
T2 sequence (Q9HBH9 whole entry T379D): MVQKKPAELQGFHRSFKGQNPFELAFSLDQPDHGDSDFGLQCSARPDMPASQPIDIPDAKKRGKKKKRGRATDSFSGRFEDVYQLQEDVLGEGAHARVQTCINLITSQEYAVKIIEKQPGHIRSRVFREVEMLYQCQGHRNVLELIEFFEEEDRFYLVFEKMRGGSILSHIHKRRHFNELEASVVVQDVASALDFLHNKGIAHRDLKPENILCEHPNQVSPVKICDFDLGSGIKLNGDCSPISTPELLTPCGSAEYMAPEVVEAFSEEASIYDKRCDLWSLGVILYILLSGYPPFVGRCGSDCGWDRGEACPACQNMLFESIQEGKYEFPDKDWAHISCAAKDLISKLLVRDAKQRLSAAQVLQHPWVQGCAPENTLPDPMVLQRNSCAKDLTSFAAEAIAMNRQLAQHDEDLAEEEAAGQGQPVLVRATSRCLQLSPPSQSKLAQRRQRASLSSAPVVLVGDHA
Nature of the test: MNK2 biochemical IC50 assay (Caliper Mobility Shift Assay). As to conditions: read-out: P(IC50) MNK2 (converted).

T1 sequence (Q9BUB5 1-424 isoform Q9BUB5-2 T344D): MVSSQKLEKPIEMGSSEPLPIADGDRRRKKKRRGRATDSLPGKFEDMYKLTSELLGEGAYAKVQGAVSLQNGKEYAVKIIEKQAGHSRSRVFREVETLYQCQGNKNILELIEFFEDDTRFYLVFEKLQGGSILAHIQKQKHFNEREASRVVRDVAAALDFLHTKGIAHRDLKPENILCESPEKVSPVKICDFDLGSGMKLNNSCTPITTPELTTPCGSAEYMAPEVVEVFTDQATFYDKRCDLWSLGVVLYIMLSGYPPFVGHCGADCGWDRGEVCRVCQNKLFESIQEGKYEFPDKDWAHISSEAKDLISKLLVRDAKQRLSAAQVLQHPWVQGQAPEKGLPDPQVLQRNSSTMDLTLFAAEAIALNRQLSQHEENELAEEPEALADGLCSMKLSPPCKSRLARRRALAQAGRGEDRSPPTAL

Consider `CC(C)CCNC(=O)c1nc2c(N3CC(CCN)c4ccccc43)ncnc2s1` (stereo not drawn) [Example 165, 7-[3-(2-aminoethyl)indolin-1-yl]-N-isopentyl-thiazolo[5,4-d]pyrimidine-2-carboxamide], for which the IC50 in test [1] is 15.8 nM; at Full-length human MNK1 it was 10 nM; at Full-length human MNK2, 10 nM.

As for `COc1ccc2c(c1)CCN2c1ncnc2sc(C(=O)NCC3CCNCC3)nc12` [Example 63, 7-(5-methoxyindolin-1-yl)-N-(4-piperidylmethyl)thiazolo[5,4-d]pyrimidine-2-carboxamide], the IC50 in test [1] was 39.8 nM; at Full-length human MNK1, 79.4 nM; at Full-length human MNK2, 63.1 nM.

For the compound `O=C(NC1CCOCC1)c1nc2c(-n3ccc4ccccc43)ncnc2s1` [Example 117, 7-Indol-1-yl-N-tetrahydropyran-4-yl-thiazolo[5,4-d]pyrimidine-2-carboxamide], the IC50 in test [1] is 50.1 nM; on Full-length human MNK1 it was 50.1 nM; on Full-length human MNK2, 31.6 nM.

With `O=C(NC1CCOC1)c1nc2c(N3CCc4cc(F)ccc43)ncnc2s1` (stereo not drawn) [Example 77, 7-(5-fluoroindolin-1-yl)-N-tetrahydrofuran-3-yl-thiazolo[5,4-d]pyrimidine-2-carboxamide], the concentration for half-maximal inhibition (IC50) in test [1] was 3.98 nM; at Full-length human MNK1 it was 2 nM; on Full-length human MNK2 it was 2 nM.

For the compound `CN1CCN(CCC2CN(c3ncnc4sc(C(=O)NC5CCOCC5)nc34)c3ccccc32)CC1` (stereo not drawn) [Example 155, 7-[3-[2-(4-methylpiperazin-1-yl)ethyl]indolin-1-yl]-N-tetrahydropyran-4-yl-thiazolo[5,4-d]pyrimidine-2-carboxamide], the IC50 in test [1] was 50.1 nM; at Full-length human MNK1, 126 nM; on Full-length human MNK2, 79.4 nM.

Turning to `CN(C)CCCOc1nc2c(N3CCc4cc(F)ccc43)ncnc2s1` [Example 89, 3-((7-(5-Fluoroindolin-1-yl)thiazolo[5,4-d]pyrimidin-2-yl)oxy)-N,N-dimethylpropan-1-amine], the figures for the half-maximal inhibitory concentration (IC50) (in test [1]; on Full-length human MNK1; at Full-length human MNK2) were 200 nM, 39.8 nM and 63.1 nM, respectively.

Consider `CO[C@@H]1CCC[C@H](Oc2cc(F)ccc2Nc2ncnc3sc(C(=O)NCC4CCNCC4)nc23)C1` [Example 61, 7-[4-fluoro-2-[(1S,3R)-3-methoxycyclohexoxy]anilino]-N-(4-piperidylmethyl)thiazolo[5,4-d]pyrimidine-2-carboxamide], for which the IC50 was 79.4 nM in test [1], 100 nM on Full-length human MNK1 and 126 nM on Full-length human MNK2.

Regarding `CC(C)Oc1cc(F)ccc1Nc1ncnc2scnc12` [Example 47, N-[4-fluoro-2-(propan-2-yloxy)phenyl][1,3]thiazolo[5,4-d]pyrimidin-7-amine], the IC50 in test [1] is 126 nM; on Full-length human MNK1 it was 251 nM; at Full-length human MNK2, 200 nM.

Take `O=C(NC1CCNCC1)c1nc2c(N3CCc4ccccc43)ncnc2s1` [Example 98, 7-indolin-1-yl-N-(4-piperidyl)thiazolo[5,4-d]pyrimidine-2-carboxamide]: the IC50 in test [1] was 3.98 nM; on Full-length human MNK1, 3.16 nM; on Full-length human MNK2 it was 3.98 nM.

For the compound `CN1CCN(C(=O)c2nc3c(N4CCc5ccccc54)ncnc3s2)CC1` [Example 96, (7-indolin-1-ylthiazolo[5,4-d]pyrimidin-2-yl)-(4-methylpiperazin-1-yl)methanone], the IC50 is 501 nM in test [1], 398 nM at Full-length human MNK1 and 251 nM at Full-length human MNK2.

In the case of `O=C(NC1CCNCC1)c1nc2c(N3CCc4cc(F)ccc43)ncnc2s1` [Example 78, 7-(5-fluoroindolin-1-yl)-N-(4-piperidyl)thiazolo[5,4-d]pyrimidine-2-carboxamide], the IC50 is 3.16 nM in test [1], 2 nM on Full-length human MNK1 and 2 nM on Full-length human MNK2.

For `C[C@@H]1Cc2ccccc2N1c1ncnc2sc(C(=O)NCC3CCNCC3)nc12` [Example 127, (R)-7-(2-Methylindolin-1-yl)-N-(piperidin-4-ylmethyl)thiazolo[5,4-d]pyrimidine-2-carboxamide], the figures for the IC50 (in test [1]; on Full-length human MNK1; on Full-length human MNK2) were 15.8 nM, 12.6 nM and 15.8 nM, respectively.

Take `CC(C)Oc1cc(F)ccc1Nc1ncnc2sc(C(=O)NCC3CNCCO3)nc12` (stereo not drawn) [Example 4, 7-(4-fluoro-2-isopropoxy-anilino)-N-(morpholin-2-ylmethyl)thiazolo[5,4-d]pyrimidine-2-carboxamide]: the IC50 in test [1] was 100 nM; at Full-length human MNK1, 50.1 nM; on Full-length human MNK2, 39.8 nM.

For the compound `CC1(CO)CN(c2ncnc3sc(C(=O)NCC4CCNCC4)nc23)c2ccc(F)cc21` (stereo not drawn) [Example 141], the values for the IC50 (in test [1]; at Full-length human MNK1; at Full-length human MNK2) were 20 nM, 3.16 nM and 5.01 nM, respectively.

In the case of `O=C(NC1CCOCC1)c1nc2c(N3CCc4cc(O)ccc43)ncnc2s1` [Example 114, 7-(5-hydroxyindolin-1-yl)-N-tetrahydropyran-4-yl-thiazolo[5,4-d]pyrimidine-2-carboxamide], the IC50 was 1.58 nM in test [1], 2.51 nM at Full-length human MNK1 and 2.51 nM at Full-length human MNK2.

As to `CC(C)Oc1cc(F)ccc1Nc1ncnc2sc(CO)nc12` [Example 48, [7-(4-Fluoro-2-isopropoxy-anilino)thiazolo[5,4-d]pyrimidin-2-yl]methanol], the IC50 in test [1] is 20 nM; on Full-length human MNK1, 63.1 nM; at Full-length human MNK2 it was 39.8 nM.

`CNC(=O)c1nc2c(N3CC(C)c4ccccc43)ncnc2s1` (stereo not drawn) [Example 156, N-methyl-7-(3-methylindolin-1-yl)thiazolo[5,4-d]pyrimidine-2-carboxamide]: the IC50 in test [1] is 5.01 nM; on Full-length human MNK1, 10 nM; at Full-length human MNK2, 7.94 nM.

`CNCCCNC(=O)c1nc2c(N3c4ccccc4C[C@@H]3C)ncnc2s1` [Example 131, N-[3-(methylamino)propyl]-7-[(2S)-2-methylindolin-1-yl]thiazolo[5,4-d]pyrimidine-2-carboxamide]: the IC50 in test [1] was 39.8 nM; at Full-length human MNK1, 100 nM; at Full-length human MNK2, 31.6 nM.

With `CN(C)CCCNC(=O)c1nc2c(Nc3ccc(F)cc3OC3CCCC3)ncnc2s1` [Example 22, 7-[2-(Cyclopentoxy)-4-fluoro-anilino]-N-[3-(dimethylamino)propyl]thiazolo[5,4-d]pyrimidine-2-carboxamide], the results for the IC50 (in test [1]; on Full-length human MNK1; at Full-length human MNK2) were 63.1 nM, 100 nM and 63.1 nM, respectively.

Consider `O=C(Nc1nc2c(N3CCc4cc(F)ccc43)ncnc2s1)C1CCOC1` (stereo not drawn) [Example 84, N-(7-(5-Fluoroindolin-1-yl)thiazolo[5,4-d]pyrimidin-2-yl)tetrahydrofuran-3-carboxamide], for which the IC50 in test [1] is 50.1 nM; on Full-length human MNK1, 3.98 nM; on Full-length human MNK2 it was 5.01 nM.

With `CN1CCC(NC(=O)c2nc3c(N4CCc5cc([N+](=O)[O-])ccc54)ncnc3s2)CC1` [Example 45, N-(1-methylpiperidin-4-yl)-7-(5-nitro-2,3-dihydro-1H-indol-1-yl)[1,3]thiazolo[5,4-d]pyrimidine-2-carboxamide], the IC50 in test [1] is 31.6 nM; on Full-length human MNK1, 15.8 nM; at Full-length human MNK2, 20 nM.

Turning to `CC(C)Oc1cc(F)ccc1Nc1ncnc2sc(C(=O)NC3CC4CCC(C3)N4C(=O)OC(C)(C)C)nc12` (stereo not drawn) [Example 6, tert-butyl 3-[[7-(4-fluoro-2-isopropoxy-anilino)thiazolo[5,4-d]pyrimidine-2-carbonyl]amino]-8-azabicyclo[3.2.1]octane-8-carboxylate], the IC50 in test [1] is 251 nM; on Full-length human MNK1 it was 794 nM; at Full-length human MNK2, 398 nM.

On to `CC1Cc2ccccc2N1c1ncnc2sc(C(=O)NCC3CCNCC3)nc12` (stereo in doubt) [Example 134, 7-[(2R)-2-methylindolin-1-yl]-N-(4-piperidyl-methyl)thiazolo[5,4-d]pyrimidine-2-carboxamide], for which the IC50 in test [1] is 39.8 nM; on Full-length human MNK1, 31.6 nM; at Full-length human MNK2 it was 25.1 nM.

For the compound `N#Cc1ccc2c(c1)CCN2c1ncnc2sc(C(=O)NC3CCOCC3)nc12` [Example 42, 7-(5-cyano-2,3-dihydro-1H-indol-1-yl)-N-(tetrahydro-2H-pyran-4-yl)[1,3]thiazolo[5,4-d]pyrimidine-2-carboxamide], the IC50 in test [1] was 31.6 nM; on Full-length human MNK1 it was 31.6 nM; on Full-length human MNK2, 20 nM.

In the case of `CC(C)Oc1cc(F)ccc1Nc1ncnc2sc(C(=O)NC3CCNCC3)nc12` [Example 31, 7-{[4-Fluoro-2-(propan-2-yloxy)phenyl]amino}-N-(piperidin-4-yl)[1,3]thiazolo[5,4-d]pyrimidine-2-carboxamide], the IC50 is 50.1 nM in test [1], 63.1 nM at Full-length human MNK1 and 50.1 nM on Full-length human MNK2.

For the compound `O=C(NC1CCOCC1)c1nc2c(N3CC(CO)c4ccccc43)ncnc2s1` (stereo not drawn) [Example 109, 7-[3-(hydroxymethyl)indolin-1-yl]-N-tetrahydropyran-4-yl-thiazolo[5,4-d]pyrimidine-2-carboxamide], the values for the IC50 (in test [1]; at Full-length human MNK1; at Full-length human MNK2) were 12.6 nM, 12.6 nM and 7.94 nM, respectively.

Turning to `CC(C)Oc1cc(F)ccc1Nc1ncnc2sc(C(=O)NCCC(=O)O)nc12` [Example 14, 3-[[7-(4-fluoro-2-isopropoxy-anilino)thiazolo[5,4-d]pyrimidine-2-carbonyl]amino]propanoic acid], the IC50 in test [1] was 398 nM; at Full-length human MNK1 it was 158 nM; at Full-length human MNK2, 79.4 nM.

Regarding `O=C(NCC1CCNCC1)c1nc2c(N3CC(CO)c4ccccc43)ncnc2s1` (stereo not drawn) [Example 135, 7-[3-(Hydroxymethyl)indolin-1-yl]-N-(4-piperidylmethyl)thiazolo[5,4-d]pyrimidine-2-carboxamide], the IC50 in test [1] is 31.6 nM; on Full-length human MNK1, 10 nM; at Full-length human MNK2, 7.94 nM.
